Our source for the relative viability values is the supplement of paper PMC10307832.

Common to all, as to assay: relative viability (nuclei count vs DMSO), 5 days (fraction); higher = more cells survive
Compound in the assay “Doramapimod + OSI-027”: Cc1ccc(-n2nc(C(C)(C)C)cc2NC(=O)Nc2ccc(OCCN3CCOCC3)c3ccccc23)cc1 [Doramapimod] + COc1cccc2cc(-c3nc([C@H]4CC[C@H](C(=O)O)CC4)n4ncnc(N)c34)[nH]c12 [OSI-027] (partner 0.5 µM)
A digest of the protocol:
(§1)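 Relative viability divides the nuclei count in treated wells by that in vehicle wells. Lung cancer cell lines were seeded in 1536-well plates, dosed by pin tool the next day, and fixed and stained after 5 days in one step with final 0.05% Triton X-100, 1% formaldehyde and 1 ug/ml Hoechst. Dosing was a single drug or a fixed anchor-drug dose plus five library-drug doses (not always all listed) in √10 steps, and values are medians of duplicate plates imaged at 4×.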

Compound in the assay “IPA-3 + Palbociclib”: C1=CC=C2C(=C1)C=CC(=C2SSC3=C(C=CC4=CC=CC=C43)O)O [IPA-3] + CC(=O)c1c(C)c2cnc(Nc3ccc(N4CCNCC4)cn3)nc2n(C2CCCC2)c1=O [Palbociclib] (partner 0.5 µM)
A digest of the protocol:
as §1

Compound in the assay “IPA-3 + Bortezomib”: C1=CC=C2C(=C1)C=CC(=C2SSC3=C(C=CC4=CC=CC=C43)O)O [IPA-3] + CC(C)C[C@H](NC(=O)[C@H](Cc1ccccc1)NC(=O)c1cnccn1)B(O)O [Bortezomib] (partner 0.002 µM)
Summed up:
as §1

Compound in the assay “IPA-3 + Decitabine”: C1=CC=C2C(=C1)C=CC(=C2SSC3=C(C=CC4=CC=CC=C43)O)O [IPA-3] + Nc1ncn([C@H]2C[C@H](O)[C@@H](CO)O2)c(=O)n1 [Decitabine] (partner 2 µM)
Summed up: as §1

Regarding UMC-11, the relative viability in the assay with Doramapimod + OSI-027 (first compound 0.02 µM) worked out at 0.49; with Doramapimod + OSI-027 (first compound 0.06325 µM), 0.385; with Doramapimod + OSI-027 (first compound 0.2 µM), 0.472; with Doramapimod + OSI-027 (first compound 0.6325 µM) it was 0.438; in the assay with Doramapimod + OSI-027 (first compound 2 µM) it was 0.444; with IPA-3 + Palbociclib (first compound 0.2 µM) it was 0.323. For the same cell line, the relative viability worked out at 0.333 in the assay with IPA-3 + Palbociclib (first compound 0.6325 µM); 0.312 with IPA-3 + Palbociclib (first compound 2 µM); 0.328 with IPA-3 + Palbociclib (first compound 6.325 µM); 0.337 with IPA-3 + Palbociclib (first compound 20 µM); 0.923 in the assay with IPA-3 + Bortezomib (first compound 0.2 µM); 0.767 with IPA-3 + Bortezomib (first compound 0.6325 µM). Further, the relative viability with IPA-3 + Bortezomib (first compound 2 µM) worked out at 0.845; with IPA-3 + Bortezomib (first compound 6.325 µM), 0.726; in the assay with IPA-3 + Bortezomib (first compound 20 µM) it was 0.986; with IPA-3 + Decitabine (first compound 0.2 µM), 0.682; with IPA-3 + Decitabine (first compound 0.6325 µM) it was 0.759; with IPA-3 + Decitabine (first compound 2 µM), 0.568. In addition, the relative viability came to 0.362 with IPA-3 + Decitabine (first compound 6.325 µM) and 0.594 with IPA-3 + Decitabine (first compound 20 µM).
